PubChem BioAssay (NCI)
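Growth conditions: 96-well plates. Treatment: test compound, 48 hours, 5 concentrations. Analysis: linear interpolation between bracketing concentrations; unreached endpoints set to highest concentration. GI50 = concentration required for 50% inhibition of growth. TGI is the concentration that stops growth completely.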

Assays:
Assay in all cases: NCI tumour cell line growth inhibition, 48 h
MDA-MB-435 = tested on: MDA-MB-435
U251 CNS = tested on: U251 CNS
RPMI-8226 leukemia = tested on: RPMI-8226 leukemia
MOLT-4 leukemia = tested on: MOLT-4 leukemia
MCF7 breast = tested on: MCF7 breast
EKVX NSCLC = tested on: EKVX NSCLC
NCI-H226 lung = tested on: NCI-H226 lung
CCRF-CEM leukemia = tested on: CCRF-CEM leukemia
HOP-62 NSCLC = tested on: HOP-62 NSCLC
NCI-H522 lung = tested on: NCI-H522 lung
HCT-15 colon = tested on: HCT-15 colon
PC-3 prostate = tested on: PC-3 prostate
SK-OV-3 ovarian = tested on: SK-OV-3 ovarian
NCI-H460 lung = tested on: NCI-H460 lung
COLO 205 colon = tested on: COLO 205 colon
A498 renal = tested on: A498 renal
CAKI-1 renal = tested on: CAKI-1 renal
MALME-3M melanoma = tested on: MALME-3M melanoma
MDA-MB-231 breast = tested on: MDA-MB-231 breast
UACC-257 melanoma = tested on: UACC-257 melanoma
TK-10 renal = tested on: TK-10 renal
RXF 393 renal = tested on: RXF 393 renal
SF-295 CNS = tested on: SF-295 CNS
SK-MEL-28 melanoma = tested on: SK-MEL-28 melanoma
SNB-19 CNS = tested on: SNB-19 CNS
DU-145 prostate = tested on: DU-145 prostate
NCI-H23 lung = tested on: NCI-H23 lung
A549 NSCLC = tested on: A549 NSCLC
SK-MEL-2 melanoma = tested on: SK-MEL-2 melanoma
BT-549 breast = tested on: BT-549 breast
HCT-116 colon = tested on: HCT-116 colon
LOX IMVI melanoma = tested on: LOX IMVI melanoma
OVCAR-3 ovarian = tested on: OVCAR-3 ovarian
SF-268 CNS = tested on: SF-268 CNS
UO-31 renal = tested on: UO-31 renal
SN12C renal = tested on: SN12C renal
ACHN renal = tested on: ACHN renal
HOP-92 NSCLC = tested on: HOP-92 NSCLC
NCI/ADR-RES ovarian = tested on: NCI/ADR-RES ovarian
SNB-75 CNS = tested on: SNB-75 CNS
HL-60(TB) leukemia = tested on: HL-60(TB) leukemia
KM12 colon = tested on: KM12 colon
UACC-62 melanoma = tested on: UACC-62 melanoma
OVCAR-4 ovarian = tested on: OVCAR-4 ovarian
OVCAR-8 ovarian = tested on: OVCAR-8 ovarian
SF-539 CNS = tested on: SF-539 CNS
T-47D breast = tested on: T-47D breast
OVCAR-5 ovarian = tested on: OVCAR-5 ovarian
IGROV1 ovarian = tested on: IGROV1 ovarian
HCC-2998 colon = tested on: HCC-2998 colon
M14 melanoma = tested on: M14 melanoma
K-562 leukemia = tested on: K-562 leukemia
HS 578T breast = tested on: HS 578T breast
SR leukemia = tested on: SR leukemia
786-0 renal = tested on: 786-0 renal
SW-620 colon = tested on: SW-620 colon
HT29 colon = tested on: HT29 colon
SK-MEL-5 melanoma = tested on: SK-MEL-5 melanoma

Cc1cc2c(C(C)C)c(O)c(O)c(C=O)c2c(O)c1-c1c(C)cc2c(C(C)C)c(O)c(O)c(C=O)c2c1O (tested in a mixture with another compound)
GI50 (MDA-MB-435): 1860 nM | TGI (MDA-MB-435): 5190 nM | GI50 (U251 CNS): 502 nM | TGI (U251 CNS): 1930 nM | GI50 (RPMI-8226 leukemia): 529 nM | TGI (RPMI-8226 leukemia): 4740 nM | GI50 (MOLT-4 leukemia): 748 nM | TGI (MOLT-4 leukemia): 13600 nM | GI50 (MCF7 breast): 1180 nM | TGI (MCF7 breast): 6900 nM | GI50 (EKVX NSCLC): 473 nM | TGI (EKVX NSCLC): 3180 nM | GI50 (NCI-H226 lung): 1390 nM | TGI (NCI-H226 lung): 4950 nM | GI50 (CCRF-CEM leukemia): 546 nM | TGI (CCRF-CEM leukemia): 13700 nM | GI50 (HOP-62 NSCLC): 988 nM | TGI (HOP-62 NSCLC): 2900 nM | GI50 (NCI-H522 lung): 584 nM | TGI (NCI-H522 lung): 2440 nM | GI50 (HCT-15 colon): 790 nM | TGI (HCT-15 colon): 2990 nM | GI50 (PC-3 prostate): 455 nM | TGI (PC-3 prostate): 3420 nM | GI50 (SK-OV-3 ovarian): 1780 nM | TGI (SK-OV-3 ovarian): 9330 nM | GI50 (NCI-H460 lung): 484 nM | TGI (NCI-H460 lung): 1870 nM | GI50 (COLO 205 colon): 1360 nM | TGI (COLO 205 colon): 2870 nM | GI50 (A498 renal): 1290 nM | TGI (A498 renal): 2920 nM | GI50 (CAKI-1 renal): 966 nM | TGI (CAKI-1 renal): 4810 nM | GI50 (MALME-3M melanoma): 1740 nM | TGI (MALME-3M melanoma): 5010 nM | GI50 (MDA-MB-231 breast): 2110 nM | TGI (MDA-MB-231 breast): 5800 nM | GI50 (UACC-257 melanoma): 1790 nM | TGI (UACC-257 melanoma): 4120 nM | GI50 (TK-10 renal): 546 nM | TGI (TK-10 renal): 2930 nM | GI50 (RXF 393 renal): 1000 nM | TGI (RXF 393 renal): 2520 nM | GI50 (SF-295 CNS): 325 nM | TGI (SF-295 CNS): 1710 nM | GI50 (SK-MEL-28 melanoma): 1640 nM | TGI (SK-MEL-28 melanoma): 3640 nM | GI50 (SNB-19 CNS): 686 nM | TGI (SNB-19 CNS): 9470 nM | GI50 (DU-145 prostate): 1120 nM | TGI (DU-145 prostate): 3070 nM | GI50 (NCI-H23 lung): 464 nM | TGI (NCI-H23 lung): 2030 nM | GI50 (A549 NSCLC): 468 nM | TGI (A549 NSCLC): 2380 nM | GI50 (SK-MEL-2 melanoma): 1640 nM | TGI (SK-MEL-2 melanoma): 4070 nM | GI50 (BT-549 breast): 1260 nM | TGI (BT-549 breast): 3760 nM | GI50 (HCT-116 colon): 455 nM | TGI (HCT-116 colon): 1610 nM | GI50 (LOX IMVI melanoma): 1160 nM | TGI (LOX IMVI melanoma): 2540 nM | GI50 (OVCAR-3 ovarian): 1030 nM | TGI (OVCAR-3 ovarian): 2690 nM | GI50 (SF-268 CNS): 1060 nM | TGI (SF-268 CNS): 3260 nM | GI50 (UO-31 renal): 1640 nM | TGI (UO-31 renal): 4560 nM | GI50 (SN12C renal): 1660 nM | TGI (SN12C renal): 5950 nM | GI50 (ACHN renal): 545 nM | TGI (ACHN renal): 2210 nM | GI50 (HOP-92 NSCLC): 223 nM | TGI (HOP-92 NSCLC): 909 nM | GI50 (NCI/ADR-RES ovarian): 825 nM | TGI (NCI/ADR-RES ovarian): 2560 nM | GI50 (SNB-75 CNS): 1550 nM | TGI (SNB-75 CNS): 5030 nM | GI50 (HL-60(TB) leukemia): 535 nM | TGI (HL-60(TB) leukemia): 5740 nM | GI50 (KM12 colon): 394 nM | TGI (KM12 colon): 1510 nM | GI50 (UACC-62 melanoma): 1870 nM | TGI (UACC-62 melanoma): 4230 nM | GI50 (OVCAR-4 ovarian): 1450 nM | TGI (OVCAR-4 ovarian): 9990 nM | GI50 (OVCAR-8 ovarian): 1180 nM | TGI (OVCAR-8 ovarian): 3490 nM | GI50 (SF-539 CNS): 1330 nM | TGI (SF-539 CNS): 4420 nM | GI50 (T-47D breast): 1770 nM | TGI (T-47D breast): 7030 nM | GI50 (OVCAR-5 ovarian): 1650 nM | TGI (OVCAR-5 ovarian): 5260 nM | GI50 (IGROV1 ovarian): 979 nM | TGI (IGROV1 ovarian): 12700 nM | GI50 (HCC-2998 colon): 484 nM | TGI (HCC-2998 colon): 1760 nM | GI50 (M14 melanoma): 1500 nM | TGI (M14 melanoma): 3610 nM | GI50 (K-562 leukemia): 425 nM | TGI (K-562 leukemia): 20700 nM | GI50 (HS 578T breast): 543 nM | TGI (HS 578T breast): 4330 nM | GI50 (SR leukemia): 1460 nM | TGI (SR leukemia): 17800 nM | GI50 (786-0 renal): 819 nM | TGI (786-0 renal): 3290 nM | GI50 (SW-620 colon): 806 nM | TGI (SW-620 colon): 2330 nM | GI50 (HT29 colon): 1610 nM | TGI (HT29 colon): 3510 nM | GI50 (SK-MEL-5 melanoma): 1540 nM | TGI (SK-MEL-5 melanoma): 2950 nM
